{"source": "patent US20260256792A1", "about": "“TREATMENT OF CHRONIC SPONTANEOUS URTICARIA BY ADMINISTERING (R)-2-[3-[4-AMINO-3-(2-FLUORO-4-PHENOXY-PHENYL)PYRAZOLO[3,4-D]PYRIMIDIN-1-YL]PIPERIDINE-1-CARBONYL]-4-METHYL-4-[4-(OXETAN-3-YL)PIPERAZIN-1-YL]PENT-2-ENENITRILE” (priority 2023, published 2026)", "tested_on": "moderate-to-severe chronic spontaneous urticaria (CSU)", "assay": "Phase 2 CSU study: urticaria activity score over 7 days (UAS7)", "type": "in vivo, human", "set-up": "key to UAS7 Median / UAS7 Change from baseline Median / UAS7 change from baseline, Q1 / UAS7 change from baseline, Q3 / UAS7 change from baseline, Max / UAS7 Change from baseline LS Mean (SE): UAS7 points; daily UAS score ranges 0–6 points/day, over 7 days", "from_the_text": "The study comprises a 12 week, randomized, double-blind, placebo-controlled, multi-center, dose-ranging efficacy and safety phase, followed by a 40 week open label extension (OLE) phase (see FIG. 1). The study consists of three phases and an optional OLE phase. […] Clinically, CSU is characterized by the spontaneous and recurrent appearance of pruritic hives. The proposed primary endpoints were the UAS7 at Week 12 in EU and EU reference countries and the ISS7 in the US. Regardless of where a participant was from, all assessments were the same. The UAS7 score is a composite score containing both the HSS7 and the ISS7. This allowed a global assessment of the two key components of urticaria: hives and itch. […] The UAS is a validated PRO measure. […] The daily UAS scores range from 0 to 6 point/day. […] Patients were to complete the UAS using the e-diary. […] The following secondary endpoints were to be analyzed using the same approach as for the primary endpoint: • Change from baseline in UAS7 at Week 4 • Change from baseline in UAS7 at Week 12 (for US and US reference countries) • Change from baseline in ISS7 at Week 12 (except US and US reference countries) • Change from baseline in HSS7 at Week 12 The following responder secondary endpoints were to be analyzed using the Cochran-Mantel-Haenszel test adjusted by region: • Proportion of participants with UAS7<6 at Week 12 • Proportion of participants with UAS7=0 at Week 12 Participants who received selected prohibited medications and/or rescue medications were to be considered as non-responders for time points after the medication usage. For other participants, all available data including those collected during the off-treatment period were to be used to determine the responder/non-responder status. Missing data were to be considered as non-responders.", "key": {"[1]": {"details": "ITT Population, 400 mg TID, Week 1"}, "[2]": {"details": "ITT Population, 400 mg TID, Week 12"}, "[3]": {"details": "ITT population, 400 mg BID, Week 1"}, "[4]": {"details": "ITT population, 400 mg BID, Week 3"}, "[5]": {"details": "ITT population, 400 mg BID, Week 4"}, "[6]": {"details": "ITT population, 400 mg BID, Week 5"}, "[7]": {"details": "ITT population, 400 mg BID, Week 6"}, "[8]": {"details": "ITT population, 400 mg BID, Week 7"}, "[9]": {"details": "ITT population, 400 mg BID, Week 8"}, "[10]": {"details": "ITT population, 400 mg BID, Week 9"}, "[11]": {"details": "ITT population, 400 mg BID, Week 10"}, "[12]": {"details": "ITT population, 400 mg BID, Week 11"}, "[13]": {"details": "ITT population, 400 mg BID, Week 12"}, "[14]": {"details": "ITT population, 400 mg QPM, Week 1"}}}
{"smiles": "CC(C)(C=C(C#N)C(=O)N1CCC[C@@H](n2nc(-c3ccc(Oc4ccccc4)cc3F)c3c(N)ncnc32)C1)N1CCN(C2COC2)CC1", "note": "[rilzabrutinib, (R)-2-[3-[4-amino-3-(2-fluoro-4-phenoxy-phenyl)pyrazolo[3,4-d]pyrimidin-1-yl]piperidine-1-carbonyl]-4-methyl-4-[4-(oxetan-3-yl)piperazin-1-yl]pent-2-enenitrile]", "values": [{"measurement": "UAS7 Post-baseline Mean (SD)", "setting": "ITT Population, 400 mg QPM, Week 5", "value": "20.58 (9.05)"}, {"measurement": "UAS7 % Change difference for rilzabrutinib vs. placebo LS Mean (95% CI)", "setting": "[1]", "value": "−29.94", "unit": "%"}, {"measurement": "UAS7 % Change from baseline LS Mean (SE)", "setting": "[1]", "value": "−40.18", "unit": "%"}, {"measurement": "UAS7 Change from baseline LS Mean (SE)", "setting": "[1]", "value": "−12.72"}, {"measurement": "UAS7 Post-baseline Mean (SD)", "setting": "[1]", "value": "16.95 (10.13)"}, {"measurement": "UAS7 % Change difference for rilzabrutinib vs. placebo LS Mean (95% CI)", "setting": "[2]", "value": "−26.23", "unit": "%"}, {"measurement": "UAS7 % Change from baseline LS Mean (SE)", "setting": "[2]", "value": "−59.16", "unit": "%"}, {"measurement": "UAS7 Change difference for rilzabrutinib vs. placebo LS Mean (95% CI)", "setting": "[2]", "value": "−6.76"}, {"measurement": "UAS7 Change from baseline LS Mean (SE)", "setting": "[2]", "value": "−17.95"}, {"measurement": "UAS7 % Change difference for rilzabrutinib vs. placebo LS Mean (95% CI)", "setting": "[3]", "value": "−23.93", "unit": "%"}, {"measurement": "UAS7 % Change from baseline LS Mean (SE)", "setting": "[3]", "value": "−34.18", "unit": "%"}, {"measurement": "UAS7 Change difference for rilzabrutinib vs. placebo LS Mean (95% CI)", "setting": "[3]", "value": "−6.18"}, {"measurement": "UAS7 Change from baseline LS Mean (SE)", "setting": "[3]", "value": "−10.01"}, {"measurement": "UAS7 Post-baseline Mean (SD)", "setting": "[3]", "value": "19.98 (11.35)"}, {"measurement": "UAS7 % Change difference for rilzabrutinib vs. placebo LS Mean (95% CI)", "setting": "[4]", "value": "−18.34", "unit": "%"}, {"measurement": "UAS7 % Change from baseline LS Mean (SE)", "setting": "[4]", "value": "−39.97", "unit": "%"}, {"measurement": "UAS7 Change difference for rilzabrutinib vs. placebo LS Mean (95% CI)", "setting": "[4]", "value": "−4.74"}, {"measurement": "UAS7 Change from baseline LS Mean (SE)", "setting": "[4]", "value": "−12.33"}, {"measurement": "UAS7 Post-baseline Mean (SD)", "setting": "[4]", "value": "17.63 (12.02)"}, {"measurement": "UAS7 % Change difference for rilzabrutinib vs. placebo LS Mean (95% CI)", "setting": "[5]", "value": "−20.76", "unit": "%"}, {"measurement": "UAS7 % Change from baseline LS Mean (SE)", "setting": "[5]", "value": "−44.02", "unit": "%"}, {"measurement": "UAS7 Change difference for rilzabrutinib vs. placebo LS Mean (95% CI)", "setting": "[5]", "value": "−5.34"}, {"measurement": "UAS7 Change from baseline LS Mean (SE)", "setting": "[5]", "value": "−13.41"}, {"measurement": "UAS7 Post-baseline Mean (SD)", "setting": "[5]", "value": "15.62 (12.20)"}, {"measurement": "UAS7 % Change difference for rilzabrutinib vs. placebo LS Mean (95% CI)", "setting": "[6]", "value": "−10.88", "unit": "%"}, {"measurement": "UAS7 % Change from baseline LS Mean (SE)", "setting": "[6]", "value": "−42.67", "unit": "%"}, {"measurement": "UAS7 Change difference for rilzabrutinib vs. placebo LS Mean (95% CI)", "setting": "[6]", "value": "−2.61"}, {"measurement": "UAS7 Change from baseline LS Mean (SE)", "setting": "[6]", "value": "−12.81"}, {"measurement": "UAS7 Post-baseline Mean (SD)", "setting": "[6]", "value": "16.44 (13.70)"}, {"measurement": "UAS7 % Change difference for rilzabrutinib vs. placebo LS Mean (95% CI)", "setting": "[7]", "value": "−14.76", "unit": "%"}, {"measurement": "UAS7 % Change from baseline LS Mean (SE)", "setting": "[7]", "value": "−41.66", "unit": "%"}, {"measurement": "UAS7 Change difference for rilzabrutinib vs. placebo LS Mean (95% CI)", "setting": "[7]", "value": "−3.64"}, {"measurement": "UAS7 Change from baseline LS Mean (SE)", "setting": "[7]", "value": "−12.78"}, {"measurement": "UAS7 Post-baseline Mean (SD)", "setting": "[7]", "value": "16.51 (12.98)"}, {"measurement": "UAS7 % Change difference for rilzabrutinib vs. placebo LS Mean (95% CI)", "setting": "[8]", "value": "−20.46", "unit": "%"}, {"measurement": "UAS7 % Change from baseline LS Mean (SE)", "setting": "[8]", "value": "−47.80", "unit": "%"}, {"measurement": "UAS7 Change difference for rilzabrutinib vs. placebo LS Mean (95% CI)", "setting": "[8]", "value": "−5.50"}, {"measurement": "UAS7 Change from baseline LS Mean (SE)", "setting": "[8]", "value": "−14.56"}, {"measurement": "UAS7 Post-baseline Mean (SD)", "setting": "[8]", "value": "15.04 (12.35)"}, {"measurement": "UAS7 % Change difference for rilzabrutinib vs. placebo LS Mean (95% CI)", "setting": "[9]", "value": "−21.40", "unit": "%"}, {"measurement": "UAS7 % Change from baseline LS Mean (SE)", "setting": "[9]", "value": "−53.24", "unit": "%"}, {"measurement": "UAS7 Change difference for rilzabrutinib vs. placebo LS Mean (95% CI)", "setting": "[9]", "value": "−5.61"}, {"measurement": "UAS7 Change from baseline LS Mean (SE)", "setting": "[9]", "value": "−15.96"}, {"measurement": "UAS7 Post-baseline Mean (SD)", "setting": "[9]", "value": "13.59 (13.23)"}, {"measurement": "UAS7 % Change difference for rilzabrutinib vs. placebo LS Mean (95% CI)", "setting": "[10]", "value": "−24.16", "unit": "%"}, {"measurement": "UAS7 % Change from baseline LS Mean (SE)", "setting": "[10]", "value": "−52.21", "unit": "%"}, {"measurement": "UAS7 Change difference for rilzabrutinib vs. placebo LS Mean (95% CI)", "setting": "[10]", "value": "−5.85"}, {"measurement": "UAS7 Change from baseline LS Mean (SE)", "setting": "[10]", "value": "−15.45"}, {"measurement": "UAS7 Post-baseline Mean (SD)", "setting": "[10]", "value": "14.13 (14.43)"}, {"measurement": "UAS7 % Change difference for rilzabrutinib vs. placebo LS Mean (95% CI)", "setting": "[11]", "value": "−17.60", "unit": "%"}, {"measurement": "UAS7 % Change from baseline LS Mean (SE)", "setting": "[11]", "value": "−51.13", "unit": "%"}, {"measurement": "UAS7 Change difference for rilzabrutinib vs. placebo LS Mean (95% CI)", "setting": "[11]", "value": "−4.46"}, {"measurement": "UAS7 Change from baseline LS Mean (SE)", "setting": "[11]", "value": "−15.36"}, {"measurement": "UAS7 Post-baseline Mean (SD)", "setting": "[11]", "value": "14.82 (14.24)"}, {"measurement": "UAS7 % Change difference for rilzabrutinib vs. placebo LS Mean (95% CI)", "setting": "[12]", "value": "−19.11", "unit": "%"}, {"measurement": "UAS7 % Change from baseline LS Mean (SE)", "setting": "[12]", "value": "−49.87", "unit": "%"}, {"measurement": "UAS7 Change difference for rilzabrutinib vs. placebo LS Mean (95% CI)", "setting": "[12]", "value": "−4.55"}, {"measurement": "UAS7 Change from baseline LS Mean (SE)", "setting": "[12]", "value": "−14.95"}, {"measurement": "UAS7 Post-baseline Mean (SD)", "setting": "[12]", "value": "14.55 (13.86)"}, {"measurement": "UAS7 % Change difference for rilzabrutinib vs. placebo LS Mean (95% CI)", "setting": "[13]", "value": "−16.41", "unit": "%"}, {"measurement": "UAS7 % Change from baseline LS Mean (SE)", "setting": "[13]", "value": "−49.34", "unit": "%"}, {"measurement": "UAS7 Change difference for rilzabrutinib vs. placebo LS Mean (95% CI)", "setting": "[13]", "value": "−3.62"}, {"measurement": "UAS7 Change from baseline LS Mean (SE)", "setting": "[13]", "value": "−14.82"}, {"measurement": "UAS7 Post-baseline Mean (SD)", "setting": "[13]", "value": "14.70 (14.29)"}, {"measurement": "UAS7 % Change difference for rilzabrutinib vs. placebo LS Mean (95% CI)", "setting": "[14]", "value": "−12.22", "unit": "%"}, {"measurement": "UAS7 % Change from baseline LS Mean (SE)", "setting": "[14]", "value": "−22.47", "unit": "%"}]}
